From US4761398A, “Method of inducing birds to molt” (Embrex, Inc., priority 1986, dated 1988)

Columns and labels:
[1] = Body weight of hens through the molt and production period; assay type: in vivo, single combed White Leghorn hens
Experimental: During the experiment, two birds were assigned to each cage (12"×18"). The hens were maintained in their cages for two weeks prior to the molt. They received a 17 hour light: 7 hour dark photoperiod throughout this phase of the experiment. During this time, the following parameters were measured:(a) body weight (weekly); (b) feed consumption (all hens received a common layer ration, and the feed consumed during this two week period was measured); (C) production records (daily); and (d), total egg weight, egg shell weight, and egg specific gravity (measured on three consecutive days each week). Serum samples were taken once, from 10 randomly selected hens from each treatment group, and saved for future study. After the two week pre-molt adjustment period, the hens were randomly assigned to each of eight different groups. These treatment groups were as follows: (1) control, (2) forced molt, (3) chemical molt-injected, (4) vehicle control-injected, (5) chemical molt-microcapsules A, (6) vehicle control-microcapsules A, (7) chemical molt-microcapsules B, and (8) vehicle control-microcapsules B. The hens then received a seven day pre-molt treatment of a 24 hour light, zero hour dark photoperiod. On day 14 of the experiment the photoperiod was then reduced to natural day length for all treatments. Feed was made available ad libitum for all groups except the forced molt group. The forced molt group was deprived of food, but not of water, until a 30% body weight loss occurred (10 days of fasting). [D-[…] ]LHRH was used as the LHRH receptor ligand for the chemical molt groups. The "chemical molt-injected" group received intramuscular (breast) injections of 25 micrograms/day of [D-[…] ]LHRH for 10 consecutive days beginning on day 14. Alternate pectoral (breast) areas were injected each day. The "chemical molt-microcapsule" groups received a single intramuscular (breast) injection of microencapsulated [D-[…] ]LHRH on day zero. This preparation of microcapsules provided a controlled release of 25 micrograms [D-[…] ]LHRH per day for 15 consecutive days. For all treatments, body weights were measured at day zero and every three days thereafter, until the forced molt group achieved a 30% weight loss. Serum samples were periodically collected from 10 hens randomly selected from each group, and saved for future analysis. The same 10 hens from each group were bled at each collection. On day 14, the microcapsule injected groups received intramuscular injections of lactide/glycolide copolymer microcapsules which had [D-[…] ]LHRH incorporated therein. The ligand-containing microcapsules administered the "Microcapsules A" group were prepared and supplied by Debiopharm (Lausanne, Switzerland). These microcapsules were prepared by a phase-separation process to produce a free-flowing powder of spherical particles consisting of [D-[…] ]LHRH (2% wt/wt) distributed within a polymeric matrix of 53:47(mol %) poly(DL-lactide-co-glycolide) (98% wt/wt) with an inherent viscosity of 0.7 dl/g. The microcapsules were 50 micrometers or less in diameter. […] Photomicrographs of similar microcapsules are presented in T. W. Redding, et al., Proc. Natl. Acad. Sci. […]. 1984). Microcapsules were suspended in disposable syringes in vehicle containing 2% carboxymethyl cellulose and 1% "TWEEN 20" in water. After thoroughly mixing the suspension, aliquots calculated to have released a dose of 25 micrograms/day for 15 consecutive days were injected into the breast muscle of the hens. We weighed the microcapsules directly into disposable 3 ml syringes. The plunger of a plugged syringe containing microcapsules (without vehicle) was pulled back to the 1.5-2 cc mark. The hub of the syringe was then placed against a vortex mixer and the syringe vortexed rapidly for about 20 seconds, or until most of the clumps of microbeads were broken and distributed along the barrel of the syringe. […]

[2] = test system: single combed White Leghorn hens; assay: Mortality; assay type: in vivo
From the text: (§1) After the two week pre-molt adjustment period, the hens were randomly assigned to each of eight different groups. These treatment groups were as follows: (1) control, (2) forced molt, (3) chemical molt-injected, (4) vehicle control-injected, (5) chemical molt-microcapsules A, (6) vehicle control-microcapsules A, (7) chemical molt-microcapsules B, and (8) vehicle control-microcapsules B.
[D-Trp^6 ]LHRH was used as the LHRH receptor ligand for the chemical molt groups. The "chemical molt-injected" group received intramuscular (breast) injections of 25 micrograms/day of [D-Trp^6 ]LHRH for 10 consecutive days beginning on day 14. Alternate pectoral (breast) areas were injected each day. The "chemical molt-microcapsule" groups received a single intramuscular (breast) injection of microencapsulated [D-Trp^6 ]LHRH on day zero. This preparation of microcapsules provided a controlled release of 25 micrograms [D-Trp^6 ]LHRH per day for 15 consecutive days.
On day 14, the microcapsule injected groups received intramuscular injections of lactide/glycolide copolymer microcapsules which had [D-Trp^6 ]LHRH incorporated therein. The ligand-containing microcapsules administered the "Microcapsules A" group were prepared and supplied by Debiopharm (Lausanne, Switzerland). […]

[3] = test system: single combed White Leghorn hens; assay: Induction of molt by LHRH receptor ligand; assay type: in vivo; settings: all treated groups, 25 micrograms/day
Experimental: as §1
The hens then received a seven day pre-molt treatment of a 24 hour light, zero hour dark photoperiod. On day 14 of the experiment the photoperiod was then reduced to natural day length for all treatments. Feed was made available ad libitum for all groups except the forced molt group. The forced molt group was deprived of food, but not of water, until a 30% body weight loss occurred (10 days of fasting).
[D-Trp^6 ]LHRH was used as the LHRH receptor ligand for the chemical molt groups. The "chemical molt-injected" group received intramuscular (breast) injections of 25 micrograms/day of [D-Trp^6 ]LHRH for 10 consecutive days beginning on day 14. Alternate pectoral (breast) areas were injected each day. […]
Microcapsules were suspended in disposable syringes in vehicle containing 2% carboxymethyl cellulose and 1% "TWEEN 20" in water. After thoroughly mixing the suspension, aliquots calculated to have released a dose of 25 micrograms/day for 15 consecutive days were injected into the breast muscle of the hens. […]

## [D-Trp^6 ]LHRH [D-Trp^6 --LHRH]
[1]; Day 5, before treatment
  MEAN BODY WEIGHT: 1.669 kg
[1]; Day 12, before treatment (treatment started day 13/14)
  MEAN BODY WEIGHT: 1.722 kg
[1]; Day 17, 25 micrograms/day i.m.
  MEAN BODY WEIGHT: 1.765 kg
[1]; Day 22, 25 micrograms/day i.m.
  MEAN BODY WEIGHT: 1.704 kg
[1]; Day 27
  MEAN BODY WEIGHT: 1.637 kg
[1]; Day 33
  MEAN BODY WEIGHT: 1.654 kg
[1]; Day 40
  MEAN BODY WEIGHT: 1.747 kg
[1]; Day 47
  MEAN BODY WEIGHT: 1.760 kg
[1]; Day 54
  MEAN BODY WEIGHT: 1.761 kg
[1]; Day 61
  MEAN BODY WEIGHT: 1.802 kg
[1]; Day 75
  MEAN BODY WEIGHT: 1.838 kg
[1]; Day Zero, before treatment
  MEAN BODY WEIGHT: 1.720 kg
[2]; Evaluated from day 28 to day 94
  MORTALITY: Number of Hens That Died: 0
[2]; groups that received the ligand
  mortality in words: no mortality occurred
[3]
  induction of molt: induced to molt
